Experimental data: patent publication US20240207292A1, “BORONIC ACID COMPOUNDS, COMPOSITIONS AND METHODS” (Trustees of Tufts College, priority 2021, published 2024)
Square brackets hold non-standard residues; d marks the D form. Peptide text beside a SMILES is read from it. * marks the point of attachment. DOTA(Ga) = O=C1CN2CCN3CCN(CC(=O)*)CCN(CC2)CC(=O)[O][Ga]([O]1)[O]C(=O)C3; DOTAGA = O=C(O)CN1CCN(CC(=O)O)CCN(C(CCC(=O)*)C(=O)O)CCN(CC(=O)O)CC1; DOTA = O=C(O)CN1CCN(CC(=O)O)CCN(CC(=O)*)CCN(CC(=O)O)CC1; Pyrrolidine(2S-CN,4,4-F2) = N#C[C@@H]1CC(F)(F)CN1*; X6 = CN1CC(=O)C2(C1)OC([C@@H]1CCCN1*)OC2=O; boroPro = OB(O)[C@@H]1CCCN1*

target: recombinant human fibroblast activation protein (FAP) (Homo sapiens (Human), UniProt Q12884); experiment: In vitro assay fibroblast activation protein IC50 (Example 21); assay type: biochemical; settings: Z-Gly-Pro-AMC; 1.2 nM enzyme
Sequence (Q12884 whole entry): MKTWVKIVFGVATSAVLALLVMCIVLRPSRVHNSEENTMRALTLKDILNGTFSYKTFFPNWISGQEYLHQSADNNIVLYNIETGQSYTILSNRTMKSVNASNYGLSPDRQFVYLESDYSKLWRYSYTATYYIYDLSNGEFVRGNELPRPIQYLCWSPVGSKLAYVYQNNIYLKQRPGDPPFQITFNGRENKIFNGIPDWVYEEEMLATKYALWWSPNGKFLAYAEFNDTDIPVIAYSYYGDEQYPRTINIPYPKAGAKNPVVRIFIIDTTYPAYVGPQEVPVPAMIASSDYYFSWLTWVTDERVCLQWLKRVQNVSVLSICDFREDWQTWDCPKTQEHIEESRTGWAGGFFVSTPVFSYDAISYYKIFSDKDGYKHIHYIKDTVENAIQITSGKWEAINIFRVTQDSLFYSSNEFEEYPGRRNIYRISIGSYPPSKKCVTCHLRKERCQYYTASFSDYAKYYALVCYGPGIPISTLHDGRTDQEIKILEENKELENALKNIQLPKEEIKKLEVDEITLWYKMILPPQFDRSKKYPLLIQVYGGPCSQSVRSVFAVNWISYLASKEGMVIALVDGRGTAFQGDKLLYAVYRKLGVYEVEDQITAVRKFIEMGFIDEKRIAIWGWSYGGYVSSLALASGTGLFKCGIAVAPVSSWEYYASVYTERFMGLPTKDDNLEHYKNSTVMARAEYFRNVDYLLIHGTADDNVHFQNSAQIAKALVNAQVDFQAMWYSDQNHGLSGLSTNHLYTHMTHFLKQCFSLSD
Experimental: (§1) The purpose of this assay is to determine the IC50 of various inhibitors against recombinant human dipeptidyl peptidase IV (DPPIV), fibroblast activation protein (FAP) or prolyl oligopeptidase (PREP).
(§2) The assays are conducted in the following steps: • 1 Dissolve the compound in DMSO to a final concentration of 100 mM. From this, prepare a 1 mM stock at pH 7.5 in 50 mM Tris, 140 mM NaCl Buffer (FAP)/pH 7.5 in 25 mM Tris, 250 mM NaCl Buffer/[…]. • 2. Serial dilute (1:10) the 1 mM compound stocks prepared previously into the appropriate assay buffer (FAP: 50 mM Tris, 140 mM NaCl, pH 7.5/PREP: 25 mM Tris, 0.25 M NaCl, pH 7.5/DPPIV: 25 mM Tris, pH 8.0) to one row of a 96-well plate. • 3. […] Dilute the enzymes into their appropriate assay buffers. The final enzyme concentrations should be 0.1, 1.2, and 0.6 nM for DPPIV, FAP and PREP respectively. Add 180 μL to each well needed in columns 2-10. Column 1(A,B,C) should be prepared with 200 μl of appropriate assay buffer as control. Column 1(D,E,F,G,H) should be prepared with 20 μl of appropriate assay buffer and 180 ul enzyme as no inhibitor control. • 5. Add 20 μL of the compound of interest from the dilution plate prepared in step 2 to columns 2-10 of the assay plate where appropriate. Each sample should be tested in triplicate. Allow this to incubate for 10 minutes at room temperature, shaking the plate for the first two minutes. • 6. Add 10 μL of 20× substrate prepared in step 3 to each well and allow this to incubate for 15 minutes at room temperature, shaking the plate for the first two minutes. • 7. Read the fluorescence at λex: 380, λem: 460. (DPcore=[dAla|dSer|Gly]-[boroPro|Pro-nitrile], XXaa=alpha-amino acid)

Point of comparison: `CC(C)[C@H](NC(=O)CCCNC(=O)CN1CCN2CCN3CCN(CC1)CC(=O)[O][Ga]([O]C(=O)C2)[O]C(=O)C3)C(=O)N[C@H](C)C(=O)N1CCC[C@H]1B(O)O` [6614GA, DOTA(Ga)-GABA-Val-D-ala-boroPro], IC50 218 nM. Against it:
- CC(C)[C@H](NC(=O)CNC(=O)CNC(=O)CN1CCN(CC(=O)O)CCN(CC(=O)O)CCN(CC(=O)O)CC1)C(=O)N[C@H](C)C(=O)N1CC(F)(F)C[C@H]1C#N [compound 6790] ({DOTA}-GGV[dA]-{Pyrrolidine(2S-CN,4,4-F2)}) — 2-fold lower, 107 nM
- CC(C)[C@H](NC(=O)CCCCCCCNC(=O)CN1CCN2CCN3CCN(CC1)CC(=O)[O][Ga]([O]C(=O)C2)[O]C(=O)C3)C(=O)N[C@H](C)C(=O)N1CCC[C@H]1B(O)O [6947GA, DOTA(Ga)-OCT-Val-Dala-boroPro] — within 1.5-fold, 219 nM
- CC(C)[C@H](NC(=O)CNC(=O)CCC(C(=O)O)N1CCN(CC(=O)O)CCN(CC(=O)O)CCN(CC(=O)O)CC1)C(=O)N[C@H](C)C(=O)N1CCC[C@H]1B(O)O (stereo partly shown) [compound 6795] — 24-fold lower, 8.9 nM
- CC(C)[C@H](NC(=O)CNC(=O)CNC(=O)CNC(=O)CNC(=O)CCC(C(=O)O)N1CCN(CC(=O)O)CCN(CC(=O)O)CCN(CC(=O)O)CC1)C(=O)N[C@H](C)C(=O)N1CCC[C@H]1B(O)O (stereo partly shown) [compound 6868] ({DOTAGA}-GGGGV[dA]-boroPro) — 10-fold lower, 21 nM
- CC(C)[C@H](NC(=O)CCCCNC(=O)CN1CCN2CCN3CCN(CC1)CC(=O)[O][Ga]([O]C(=O)C2)[O]C(=O)C3)C(=O)N[C@H](C)C(=O)N1CCC[C@H]1B(O)O [6940GA, DOTA(Ga)-PEN-Val-Dala-boroPro] — 2-fold lower, 110 nM
- CC(C)[C@H](NC(=O)CNC(=O)CNC(=O)CNC(=O)CCC(C(=O)O)N1CCN(CC(=O)O)CCN(CC(=O)O)CCN(CC(=O)O)CC1)C(=O)N[C@H](C)C(=O)N1CCC[C@H]1B(O)O (stereo partly shown) [compound 6808] ({DOTAGA}-GGGV[dA]-boroPro) — 19-fold lower, 11.5 nM
- CC(C)[C@H](NC(=O)[C@@H](C)NC(=O)CNC(=O)CNC(=O)CNC(=O)CN1CCN(CC(=O)O)CCN(CC(=O)O)CCN(CC(=O)O)CC1)C(=O)N[C@H](C)C(=O)N1CCC[C@H]1B(O)O [compound 6839] ({DOTA}-GGG[dA]V[dA]-boroPro) — 10-fold lower, 21 nM
- CC(C)[C@H](NC(=O)CNC(=O)CNC(=O)CNC(=O)CNC(=O)CNC(=O)CNC(=O)CCC(C(=O)O)N1CCN(CC(=O)O)CCN(CC(=O)O)CCN(CC(=O)O)CC1)C(=O)N[C@H](C)C(=O)N1CCC[C@H]1B(O)O (stereo partly shown) [compound 6870] ({DOTAGA}-GGGGGGV[dA]-boroPro) — 24-fold lower, 9.2 nM
- CC(C)[C@H](NC(=O)CNC(=O)CNC(=O)CN1CCN(CC(=O)O)CCN(CC(=O)O)CCN(CC(=O)O)CC1)C(=O)N[C@H](C)C(=O)N1CCC[C@H]1C1OC(=O)C2(CN(C)CC2=O)O1 (stereo partly shown) [6522M] ({DOTA}-GGV[dA]-X6) — within 1.5-fold, 280 nM
- CC(C)[C@H](NC(=O)CCCCNC(=O)CN1CCN(CC(=O)O)CCN(CC(=O)O)CCN(CC(=O)O)CC1)C(=O)N[C@H](C)C(=O)N1CCC[C@H]1B(O)O [compound 6940, DOTA-PEN-Val-D-alaboroPro] — 42-fold lower, 5.2 nM
- CC(C)[C@H](NC(=O)CCCCCCNC(=O)CN1CCN2CCN3CCN(CC1)CC(=O)[O][Ga]([O]C(=O)C2)[O]C(=O)C3)C(=O)N[C@H](C)C(=O)N1CCC[C@H]1B(O)O [6949GA] — within 1.5-fold, 181 nM
- CC(C)[C@H](NC(=O)CNC(=O)CNC(=O)CNC(=O)CNC(=O)CNC(=O)CCC(C(=O)O)N1CCN(CC(=O)O)CCN(CC(=O)O)CCN(CC(=O)O)CC1)C(=O)N[C@H](C)C(=O)N1CCC[C@H]1B(O)O (stereo partly shown) [compound 6869] ({DOTAGA}-GGGGGV[dA]-boroPro) — 200-fold lower, 1.1 nM
- CC(C)[C@H](NC(=O)CNC(=O)CNC(=O)CNC(=O)CN1CCN2CCN3CCN(CC1)CC(=O)[O][Ga]([O]C(=O)C2)[O]C(=O)C3)C(=O)N[C@H](C)C(=O)N1CCC[C@H]1B(O)O [6834GA] ({DOTA(Ga)}-GGGV[dA]-boroPro) — 2-fold higher, 439 nM
- CC(C)[C@H](NC(=O)CNC(=O)CNC(=O)CNC(=O)CN1CCN(CC(=O)O)CCN(CC(=O)O)CCN(CC(=O)O)CC1)C(=O)N[C@H](C)C(=O)N1CCC[C@H]1B(O)O [compound 6834] ({DOTA}-GGGV[dA]-boroPro) — 8.1-fold lower, 26.8 nM
- CC(C)[C@H](NC(=O)CNC(=O)CNC(=O)CNC(=O)CNC(=O)CN1CCN2CCN3CCN(CC1)CC(=O)[O][Ga]([O]C(=O)C2)[O]C(=O)C3)C(=O)N[C@H](C)C(=O)N1CCC[C@H]1B(O)O [6839GA] ({DOTA(Ga)}-GGGGV[dA]-boroPro) — within 1.5-fold, 258 nM
- CC(C)[C@H](NC(=O)CCCCCNC(=O)CN1CCN2CCN3CCN(CC1)CC(=O)[O][Ga]([O]C(=O)C2)[O]C(=O)C3)C(=O)N[C@H](C)C(=O)N1CCC[C@H]1B(O)O [6948GA, DOTA(Ga)-HEX-Val-Dala-boroPro] — 1.5-fold lower, 144 nM

target: recombinant human prolyl oligopeptidase (PREP) (Homo sapiens (Human), UniProt P48147); experiment: In vitro assay prolyl oligopeptidase IC50 (Example 21); assay type: biochemical; settings: Z-Gly-Pro-AMC; 0.6 nM enzyme
Sequence (P48147 whole entry): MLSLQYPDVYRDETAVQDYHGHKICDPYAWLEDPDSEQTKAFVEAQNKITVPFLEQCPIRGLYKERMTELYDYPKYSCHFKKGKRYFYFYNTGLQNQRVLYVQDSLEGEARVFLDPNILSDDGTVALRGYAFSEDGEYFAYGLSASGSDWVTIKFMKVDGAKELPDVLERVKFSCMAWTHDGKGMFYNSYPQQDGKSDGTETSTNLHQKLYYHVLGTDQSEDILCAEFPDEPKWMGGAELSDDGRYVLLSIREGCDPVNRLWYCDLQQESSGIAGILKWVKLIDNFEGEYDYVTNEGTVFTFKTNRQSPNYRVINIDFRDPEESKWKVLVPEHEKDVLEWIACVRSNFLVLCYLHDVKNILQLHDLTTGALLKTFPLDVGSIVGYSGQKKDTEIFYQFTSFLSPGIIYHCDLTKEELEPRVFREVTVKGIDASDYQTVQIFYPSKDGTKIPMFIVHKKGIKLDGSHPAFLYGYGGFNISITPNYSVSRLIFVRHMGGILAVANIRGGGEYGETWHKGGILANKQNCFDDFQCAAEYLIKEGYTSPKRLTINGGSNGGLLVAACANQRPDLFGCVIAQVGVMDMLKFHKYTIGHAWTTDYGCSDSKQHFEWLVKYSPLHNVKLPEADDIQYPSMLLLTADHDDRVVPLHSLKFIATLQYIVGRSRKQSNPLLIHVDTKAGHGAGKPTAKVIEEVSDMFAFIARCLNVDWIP
Experimental: as §1, §2

Point of comparison: `CC(C)[C@H](NC(=O)CNC(=O)CCC(C(=O)O)N1CCN(CC(=O)O)CCN(CC(=O)O)CCN(CC(=O)O)CC1)C(=O)N[C@H](C)C(=O)N1CCC[C@H]1B(O)O` (stereo partly shown) [compound 6795], IC50 5520 nM. Against it:
- CC(C)[C@H](NC(=O)CNC(=O)CNC(=O)CN1CCN(CC(=O)O)CCN(CC(=O)O)CCN(CC(=O)O)CC1)C(=O)N[C@H](C)C(=O)N1CC(F)(F)C[C@H]1C#N [compound 6790] ({DOTA}-GGV[dA]-{Pyrrolidine(2S-CN,4,4-F2)}) — 28-fold higher, 157000 nM
